# Test system: Penicillium digitatum
# Assay: In vivo assay of vaporized pyrimethanil to inhibit Penicillium digitatum in oranges
# Method: An in vivo assay was used to evaluate the ability of vaporized pyrimethanil to control pathogenic infection of oranges by Penicillium digitatum. […] Each wound was then inoculated with 30 μL of 1×10^6 spores/mL suspension of P. digitatum.
# Fruits were evaluated in order to observe growth of water-soaked lesions and fungal sporulation diameter (both measured in millimeters, mm).
# [1] = 0.04 mg/L, Day 0 (after 3 days at 21° C.)
# [2] = 0.04 mg/L, Day 1 (after 3 days at 21° C.)
# [3] = 0.04 mg/L, Day 2 (after 3 days at 21° C.)
# [4] = 0.2 mg/L, Day 0 (after 3 days at 21° C.)
# [5] = 0.2 mg/L, Day 1 (after 3 days at 21° C.)
# [6] = 0.2 mg/L, Day 2 (after 3 days at 21° C.)
# [7] = 1 mg/L, Day 0 (after 3 days at 21° C.)
# [8] = 1 mg/L, Day 1 (after 3 days at 21° C.)
# [9] = 1 mg/L, Day 2 (after 3 days at 21° C.)
compound,measurement,setting,value
"Cc1cc(C)nc(Nc2ccccc2)n1 [pyrimethanil, 4,6-Dimethyl-N-phenylpyrimidin-2-amine]",Fungal Sporulation (mm),[1],1.1 mm
same,Water soaked Lesion (mm),[1],0.0 mm
same,Fungal Sporulation (mm),[2],1.4 mm
same,Water soaked Lesion (mm),[2],0.0 mm
same,Fungal Sporulation (mm),[3],2.1 mm
same,Water soaked Lesion (mm),[3],0.0 mm
same,Fungal Sporulation (mm),[4],0.6 mm
same,Water soaked Lesion (mm),[4],0.0 mm
same,Fungal Sporulation (mm),[5],0.8 mm
same,Water soaked Lesion (mm),[5],0.0 mm
same,Fungal Sporulation (mm),[6],2.4 mm
same,Water soaked Lesion (mm),[6],1.5 mm
same,Fungal Sporulation (mm),[7],1.8 mm
same,Water soaked Lesion (mm),[7],0.0 mm
same,Fungal Sporulation (mm),[8],2.0 mm
same,Water soaked Lesion (mm),[8],0.0 mm
same,Fungal Sporulation (mm),[9],2.1 mm
same,Water soaked Lesion (mm),[9],0.0 mm
